Experimental data published in patent US9890138B2, “Diaminopyrimidine derivatives and processes for the preparation thereof” (YUHAN CORPORATION, priority 2011, dated 2018).

The compounds below were run against T1, human 5-HT4(a) (Homo sapiens, UniProt Q13639) (assay: Evaluation of agonistic activity in CHO-K1 cells expressing human 5-HT4(a) (GeneBlAzer HTR4-CRE-bla CHO-K1, beta-lactamase reporter)). Conditions: CHO-K1 cells stably expressing human 5-HT4(a).
T1 construct: host or cells: GeneBlAzer HTR4-CRE-bla CHO-K1 cells
T1 sequence (Q13639 1-387 isoform Q13639-2): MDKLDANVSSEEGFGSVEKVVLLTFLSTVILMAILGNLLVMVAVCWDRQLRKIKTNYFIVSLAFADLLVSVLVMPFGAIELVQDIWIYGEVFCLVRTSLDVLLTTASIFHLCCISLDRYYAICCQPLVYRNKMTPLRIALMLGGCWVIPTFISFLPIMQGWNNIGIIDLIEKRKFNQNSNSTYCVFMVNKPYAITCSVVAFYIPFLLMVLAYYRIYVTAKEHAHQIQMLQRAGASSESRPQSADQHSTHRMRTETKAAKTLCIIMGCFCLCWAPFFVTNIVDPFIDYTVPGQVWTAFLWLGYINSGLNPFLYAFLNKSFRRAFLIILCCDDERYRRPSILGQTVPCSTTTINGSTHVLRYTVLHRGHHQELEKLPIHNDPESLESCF
Format: cell-based
Procedure: Test Example 1: Evaluation of Agonistic Activity in CHO-K1 Cells Expressing Human 5-HT4(a)
As CHO-K1 cells stably expressing human 5-HT4(a), we used the GeneBlAzer HTR4-CRE-bla CHO-K1 cells (Invitrogen Corp.). The cells were cultured, under the condition of 37[…] and 5% CO2, in a DMEM supplemented with 10% fetal bovine serum (FBS), 25 mM HEPES (pH7.4), 600 μg/ml hygromycin B, 0.1 mM non-essential amino acids, 100 unit/ml penicillin and 100 μg/ml streptomycin. Subcultures were performed three times per one week, each being at less than 80% confluence. At the previous day before treating test compounds, the cells were collected using 0.5% trypsin/EDTA and then diluted with a DMEM supplemented with 1% FBS, 25 mM HEPES, and 0.1 mM non-essential amino acids into 3.125×10^5 cells/ml. 32 μl of the diluted cells were added into 384-well plate (10^4 cells per well) and then incubated overnight. After the overnight culture, 8 μl of the medium having 1% of DMSO was added into the cell-free control well and the non-stimulating control well, respectively. 8 μl of the respective test compound dilutions (which had been prepared by diluting by 100-times with the medium as mentioned in the above) having 1% of DMSO were added to the respective remaining wells. After being cultured in the incubator for 5 hours, the wells of the 384-plate were treated with the substrate solution (8 μl per well) prepared according to the vendor's instruction (i.e., Invitrogen's instruction), and then incubated in the dark room for additional two hours. Agonistic activities on 5-HT4 receptor were evaluated, on the basis of fluorescence values of the cleavage-products by beta-lactamase. After exciting to 410 nm of wavelength using a fluorescence detector (Genios Pro), we measured the fluorescence values at two emission wavelengths (first wavelength: 465 nm, second wavelength: 535 nm). Data were analyzed on the basis of the ratio of fluorescence intensities of each well at the respective wavelengths. Each EC50 value was calculated by non-linear regression analysis using the “GraphPad Prism” program, based on the activities according to 8-different concentrations of the test compounds.

Row | EC50 [nM] | Structure (SMILES)
1 | 0.31 | CCCc1cc(N2CC[C@H](N(CC3CC3)CC3CC3)C2)nc(Nc2cccc(C#N)c2)n1 [Example 100, (S)-3-(4-{3-[bis (cyclopropylmethyl)amino]pyrrolidin-1-yl}-6-propylpyrimidin-2-ylamino)benzonitrile]
2 | 0.39 | CCCc1cc(N2CC[C@H](NCc3cccnc3)C2)nc(Nc2cccc(C#N)c2)n1 [Example 102, (S)-3-{4-propyl-6-[3-(pyridin-3-ylmethylamino)pyrrolidin-1-yl]pyrimidin-2-ylamino}benzonitrile]
3 | 0.067 | CCCc1cc(N2CC[C@H](NCc3ccncc3)C2)nc(Nc2cccc(C#N)c2)n1 [Example 103, (S)-3-{4-propyl-6-[3-(pyridin-4-ylmethylamino)pyrrolidin-1-yl]pyrimidin-2-ylamino}benzonitrile]
4 | 0.005 | CCCc1cc(N2CC[C@H](NCC(C)(C)C)C2)nc(Nc2cccc(C#N)c2)n1 [Example 105, (S)-3-{4-[3-(neopentylamino)pyrrolidin-1-yl]-6-propylpyrimidin-2-ylamino}benzonitrile]
5 | 0.13 | CCCc1cc(N2CC[C@H](NCc3ccccc3F)C2)nc(Nc2cccc(C#N)c2)n1 [Example 106, (S)-3-{4-[3-(2-fluorobenzylamino)pyrrolidin-1-yl]-6-propylpyrimidin-2-ylamino}benzonitrile]
6 | 0.42 | CCCc1cc(N2CC[C@H](NCc3cccc(C(F)(F)F)c3)C2)nc(Nc2cccc(C#N)c2)n1 [Example 107, (S)-3-(4-propyl-6-{3-[3-(trifluoromethyl)benzylamino]pyrrolidin-1-yl}pyrimidin-2-ylamino)benzonitrile]
7 | 0.21 | CCCc1cc(N2CC[C@H](NCc3ccc(C(F)(F)F)cc3)C2)nc(Nc2cccc(C#N)c2)n1 [Example 108, (S)-3-(4-propyl-6-{3-[4-(trifluoromethyl)benzylamino]pyrrolidin-1-yl}pyrimidin-2-ylamino)benzonitrile]
8 | 0.018 | CCCc1cc(N2CC[C@H](NCc3ccc(N(C)C)cc3)C2)nc(Nc2cccc(C#N)c2)n1 [Example 110, (S)-3-(4-{3-[4-(dimethylamino)benzylamino]pyrrolidin-1-yl}-6-propylpyrimidin-2-ylamino)benzonitrile]
9 | 0.008 | CCCc1cc(N2CC[C@H](NCc3ccc[nH]3)C2)nc(Nc2cccc(C#N)c2)n1 [Example 111, (S)-3-(4-{3-[(1H-pyrrol-2-yl)methylamino]pyrrolidin-1-yl}-6-propylpyrimidin-2-ylamino)benzonitrile]
10 | 0.045 | CCCc1cc(N2CC[C@H](NCc3cccs3)C2)nc(Nc2cccc(C#N)c2)n1 [Example 112, (S)-3-{4-propyl-6-[3-(thiophen-2-ylmethylamino)pyrrolidin-1-yl]pyrimidin-2-ylamino}benzonitrile]

The remaining lines, values behind:

Row | Structure (SMILES) | EC50 [nM]
11 | CCCc1cc(N2CC[C@H](NC(=O)Cc3cccnc3)C2)nc(Nc2cccc(C#N)c2)n1 [Example 77, (S)-N-{1-[2-(3-cyanophenylamino)-6-propylpyrimidin-4-yl]pyrrolidin-3-yl}-2-(pyridin-3-yl)acetamide] | 0.15
12 | CCCc1cc(N2CC[C@H](NC(=O)Cc3ccncc3)C2)nc(Nc2cccc(C#N)c2)n1 [Example 78, (S)-N-{1-[2-(3-cyanophenylamino)-6-propylpyrimidin-4-yl]pyrrolidin-3-yl}-2-(pyridin-4-yl)acetamide] | 0.28
13 | CCCc1cc(N2CC[C@H](NC(=O)C/C=C/c3ccccc3)C2)nc(Nc2cccc(C#N)c2)n1 [Example 79, (S,E)-N-{1-[2-(3-cyanophenylamino)-6-propylpyrimidin-4-yl]pyrrolidin-3-yl}-4-phenylbut-3-enamide] | 0.44
14 | CCCc1cc(N2CC[C@H](NC(=O)Cc3cccs3)C2)nc(Nc2cccc(C#N)c2)n1 [Example 80, (S)-N-{1-[2-(3-cyanophenylamino)-6-propylpyrimidin-4-yl]pyrrolidin-3-yl}-2-(thiophen-2-yl)acetamide] | 0.17
15 | CCCc1cc(N2CC[C@H](NC(=O)C(C)C)C2)nc(Nc2cccc(C#N)c2)n1 [Example 81, (S)-N-{1-[2-(3-cyanophenylamino)-6-propylpyrimidin-4-yl]pyrrolidin-3-yl}isobutyramide] | 0.205
16 | CCCc1cc(N2CC[C@H](NC(=O)CC(F)(F)F)C2)nc(Nc2cccc(C#N)c2)n1 [Example 82, (S)-N-{1-[2-(3-cyanophenylamino)-6-propylpyrimidin-4-yl]pyrrolidin-3-yl}-3,3,3-trifluoropropanamide] | 0.048
17 | CCCCCCN[C@H]1CCN(c2cc(CCC)nc(Nc3cccc(C#N)c3)n2)C1 [Example 84, (S)-3-{4-[3-(hexylamino)pyrrolidin-1-yl]-6-propylpyrimidin-2-ylamino}benzonitrile] | 0.031
18 | CCCN[C@H]1CCN(c2cc(CCC)nc(Nc3cccc(C#N)c3)n2)C1 [Example 85, (S)-3-{4-propyl-6-[3-(propylamino)pyrrolidin-1-yl]pyrimidin-2-ylamino}benzonitrile] | 0.003
19 | CCCc1cc(N2CC[C@H](NCC3CCCCC3)C2)nc(Nc2cccc(C#N)c2)n1 [Example 86, (S)-3-{4-[3-(cyclohexylmethylamino)pyrrolidin-1-yl]-6-propylpyrimidin-2-ylamino}benzonitrile] | 0.039
20 | CCCc1cc(N2CC[C@H](NCc3ccccc3)C2)nc(Nc2cccc(C#N)c2)n1 [Example 87, (S)-3-{4-[3-(benzylamino)pyrrolidin-1-yl]-6-propylpyrimidin-2-ylamino}benzonitrile] | 0.048
21 | CCCc1cc(N2CC[C@H](NCCc3ccccc3)C2)nc(Nc2cccc(C#N)c2)n1 [Example 88, (S)-3-{4-[3-(phenethylamino)pyrrolidin-1-yl]-6-propylpyrimidin-2-ylamino}benzonitrile] | 0.041
22 | CCCc1cc(N2CC[C@H](NCCCc3ccccc3)C2)nc(Nc2cccc(C#N)c2)n1 [Example 89, (S)-3-{4-[3-(3-phenylpropylamino)pyrrolidin-1-yl]-6-propylpyrimidin-2-ylamino}benzonitrile] | 0.08
23 | CCCc1cc(N2CC[C@H](NCc3cccc(F)c3)C2)nc(Nc2cccc(C#N)c2)n1 [Example 90, (S)-3-{4-[3-(3-fluorobenzylamino)pyrrolidin-1-yl]-6-propylpyrimidin-2-ylamino}benzonitrile] | 0.091
24 | CCCc1cc(N2CC[C@H](NCc3ccc(O)cc3)C2)nc(Nc2cccc(C#N)c2)n1 [Example 91, (S)-3-{4-[3-(4-hydroxybenzylamino)pyrrolidin-1-yl]-6-propylpyrimidin-2-ylamino}benzonitrile] | 0.014
25 | CCCc1cc(N2CC[C@H](NCc3ccc(CC)cc3)C2)nc(Nc2cccc(C#N)c2)n1 [Example 92, (S)-3-{4-[3-(4-ethylbenzylamino)pyrrolidin-1-yl]-6-propylpyrimidin-2-ylamino}benzonitrile] | 0.057
26 | CCCc1cc(N2CC[C@H](NCCC(C)C)C2)nc(Nc2cccc(C#N)c2)n1 [Example 93, (S)-3-{4-[3-(isopentylamino)pyrrolidin-1-yl]-6-propylpyrimidin-2-ylamino}benzonitrile] | 0.01
27 | CCCCCN[C@H]1CCN(c2cc(CCC)nc(Nc3cccc(C#N)c3)n2)C1 [Example 94, (S)-3-{4-[3-(pentylamino)pyrrolidin-1-yl]-6-propylpyrimidin-2-ylamino}benzonitrile] | 0.041
28 | CCCc1cc(N2CC[C@H](NCC(C)CC)C2)nc(Nc2cccc(C#N)c2)n1 (stereo partly drawn) [Example 95, 3-{4-[(3S)-3-(2-methylbutylamino)pyrrolidin-1-yl]-6-propylpyrimidin-2-ylamino}benzonitrile] | 0.081
29 | CCCc1cc(N2CC[C@H](NCC(C)C)C2)nc(Nc2cccc(C#N)c2)n1 [Example 96, (S)-3-{4-[3-(isobutylamino)pyrrolidin-1-yl]-6-propylpyrimidin-2-ylamino}benzonitrile] | 0.017
30 | CCCc1cc(N2CC[C@H](NCc3ccc(OC)cc3)C2)nc(Nc2cccc(C#N)c2)n1 [Example 97, (S)-3-{4-[3-(4-methoxybenzylamino)pyrrolidin-1-yl]-6-propylpyrimidin-2-ylamino}benzonitrile] | 0.046
31 | CCCc1cc(N2CC[C@H](NCc3ccc(F)cc3)C2)nc(Nc2cccc(C#N)c2)n1 [Example 98, (S)-3-{4-[3-(4-fluorobenzylamino)pyrrolidin-1-yl]-6-propylpyrimidin-2-ylamino}benzonitrile] | 0.094
32 | CCCc1cc(N2CC[C@H](NCC3CC3)C2)nc(Nc2cccc(C#N)c2)n1 [Example 99, (S)-3-{4-[3-(cyclopropylmethylamino)pyrrolidin-1-yl]-6-propylpyrimidin-2-ylamino}benzonitrile] | 0.0015
33 | CCCc1cc(N2CC[C@H](NCc3ccc(OC(C)=O)cc3)C2)nc(Nc2cccc(C#N)c2)n1 [Example 109, (S)-4-({1-[2-(3-cyanophenylamino)-6-propylpyrimidin-4-yl]pyrrolidin-3-ylamino}methyl)phenylacetate] | 0.012
